Test results reported in patent US20250213587A1, “ITK INHIBITORS FOR INCREASING TH1 CELL ACTIVITY” (Corvus Pharmaceuticals, Inc., priority 2022, published 2025).

Columns and labels:
PLCγ1 phosphorylation = experiment: Inhibition of PLCγ1 phosphorylation in Jurkat cells; type: cell-based, human; details: anti-CD3
Method: Jurkat human acute T cell leukemia cell line (ATCC, TIB-152) was cultured in RPMI 1640 medium supplemented with Penicillin-Streptomycin (Gibco) and 10% fetal bovine serum (FBS) at 37° C. and 5% CO2. […] The cell pellet was resuspended in NP40 lysis buffer (Invitrogen) containing protease and phosphatase inhibitors cocktail (Cell Signaling Technology), incubated for 30 minutes on ice, and centrifuged at 15, 000×g for 10 minutes. The lysate supernatant from each condition containing 50 μg of total protein was resolved on an 8% Bis-Tris gel (Invitrogen) under reducing condition and transferred onto a nitrocellulose membrane (Invitrogen) using an iBlot2 gel transfer device. Unless specified otherwise, all reagents described above were purchased from Thermo Fisher Scientific. Membranes were blocked for 1 hour at room temperature and incubated overnight at 4° C. with primary antibodies (1:1000 dilution) in Odyssey blocking buffer (LI-COR) with 0.2% Tween 20. Membranes were washed 4 times (5 min each) in Tris-buffered saline, 0.10% Tween 20 and incubated with IRDye 800CW Anti-Rabbit IgG and IRDye 700CW Anti-Mouse IgG (LI-COR) secondary antibodies (1:20,000 dilution) for 1 hour at room temperature. After washes, membranes were imaged in the LI-COR Odyssey® Fc Imaging System. […]

ITK = molecular target: T1, ITK (Homo sapiens, UniProt Q08881); experiment: Dialysis assay; type: biochemical; details: 24 h dialysis
T1 sequence (Q08881 1-620): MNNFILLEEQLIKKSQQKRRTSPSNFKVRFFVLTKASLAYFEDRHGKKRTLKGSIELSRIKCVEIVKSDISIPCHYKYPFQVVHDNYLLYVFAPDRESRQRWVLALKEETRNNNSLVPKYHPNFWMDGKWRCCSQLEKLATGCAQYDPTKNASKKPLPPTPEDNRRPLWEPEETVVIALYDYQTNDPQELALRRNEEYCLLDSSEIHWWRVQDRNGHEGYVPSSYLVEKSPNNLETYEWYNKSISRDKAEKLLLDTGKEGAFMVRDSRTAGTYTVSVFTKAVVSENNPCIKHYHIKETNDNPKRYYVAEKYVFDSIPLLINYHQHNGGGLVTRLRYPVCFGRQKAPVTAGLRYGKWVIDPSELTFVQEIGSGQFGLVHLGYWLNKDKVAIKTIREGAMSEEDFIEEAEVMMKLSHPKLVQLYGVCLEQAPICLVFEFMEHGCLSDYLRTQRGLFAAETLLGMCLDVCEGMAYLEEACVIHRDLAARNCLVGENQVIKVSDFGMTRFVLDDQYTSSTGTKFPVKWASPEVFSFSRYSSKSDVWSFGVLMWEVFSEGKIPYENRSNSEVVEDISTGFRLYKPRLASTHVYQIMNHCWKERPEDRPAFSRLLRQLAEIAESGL
Method: Dialysis was performed at room temperature against the same buffer for 24 hours in a Slide-A-Lyzer dialysis device (10 kDa MWCO) with three changes of the dialysis buffer giving a nominal final dialysis factor of 8×10^6. Un-dialyzed control samples incubated in parallel for 24 hours. ITK activity was measured following dialysis in a continuous sampling format using the microfluidic assay and 300 μM ATP and 2 μM Scrtide peptide substrate. The enzymatic velocity of treated samples was normalized to the appropriate control rate and expressed as a percent.

For `C=CC(=O)N1CCCN(C(=O)c2cc(Sc3cnc(NC(=O)C4CC4)s3)c(C)cc2OC)C[C@H]1C` [CPI-818], the “phosphorylation of PLCγ1” value (PLCγ1 phosphorylation) was “dose-dependently inhibited”, the “ITK activity after extensive dialysis” value (ITK) was “kinase activity was not recovered” and the “ITK activity after extensive dialysis” value (ITK; listed as CP-818) was “remained inhibited”.
